Reference: US12128034B2, “Combinations of beta-lactam compounds, probenecid, and valproic acid and uses thereof” (Iterum Therapeutics International Limited, priority 2020, dated 2024)

Assays:
clinical = conditions: in vivo; for AUC(0-t): AUC0-t; for AUC: AUC0-tau
Method: For Cohorts 2 and 3, all patients were administered valproic acid daily. Starting on the fifth day, Cohort 3 was administered the sulopenem etzadroxil tablet (“Etzadroxil Tablet”) alone and Cohort 2 was administered the bilayer tablet of sulopenem etzadroxil and probenecid (500 mg sulopenem etzadroxil+500 mg probenecid film-coated bilayer tablet; “Bilayer Tablet”).

[1] = in vivo
[2] = may result in loss of seizure control; cited from earlier work
[3] = Dacey and Sande 1974; cited from earlier work
Porphyromonas gingivalis = conditions: Ednie and Appelbaum 2009; cited from earlier work

CCCC(CCC)C(=O)O [VPA, valproic acid]
tlast, Mean (SD) (clinical; male, human): 11.920 (0.0000) h | AUC0-t, Mean (SD) (clinical; male, human, po): 570.83 (122.096) h · μg/mL | AUC0-tau, Mean (SD) (clinical; male, human, po): 554.71 (140.804) h · μg/mL | Tmax (clinical; male, human, po): 4 h | tmax, Median (min, max) (clinical; male, human, po): 4.000 (2.00, 5.00) h | AUC(0-t) (clinical; male, human, po, GM (CV %)): 517 µg·h/mL | AUC(0-t) (clinical; male, human, po, Mean (SD)): 522 µg·h/mL | AUC (clinical; male, human, po, GM (CV %)): 518 µg·h/mL | AUC (clinical; male, human, po, Mean (SD)): 522 µg·h/mL | tolerability and safety [1]: well tolerated and safe

C[C@@H](O)[C@H]1C(=O)N2C(C(=O)O)=C(S[C@@H]3CN[C@H](C(=O)Nc4cccc(C(=O)O)c4)C3)[C@H](C)[C@H]12 [ertapenem]
serum valproic acid concentration in patients receiving carbapenem antibiotics [2]: clinically significant reduction

C[C@@H](O)[C@H]1C(=O)N2C(C(=O)O)=C(SCCN=CN)C[C@H]12 [imipenem]
serum valproic acid concentration in patients receiving carbapenem antibiotics [2]: clinically significant reduction

C[C@@H](O)[C@H]1C(=O)N2C(C(=O)O)=C(S[C@@H]3CN[C@H](C(=O)N(C)C)C3)[C@H](C)[C@H]12 [meropenem]
serum valproic acid concentration in patients receiving carbapenem antibiotics [2]: clinically significant reduction

CCCN(CCC)S(=O)(=O)c1ccc(C(=O)O)cc1 [probenecid]
time at which the impact of probenecid on valproic acid bioavailability can occur (clinical; human): as early as three days | concentrations of β-lactam compounds in the cerebrospinal fluid [3]: increase

C[C@@H](O)[C@H]1C(=O)N2C(C(=O)O)=C(S[C@H]3CC[S@@+]([O-])C3)S[C@H]12 [sulopenem]
activity against Porphyromonas gingivalis (Porphyromonas gingivalis): active | effect on the steady-state pharmacokinetic profile of valproic acid (clinical): weak effect | tolerability and safety [1]: well tolerated and safe
